Data taken from patent publication US9815878B2, “Use of PEDF-derived polypeptides for preventing and/or ameliorating skin aging” (MacKay Memorial Hospital, priority 2012, dated 2017).

Experiments:
[1] = tested on: primary mouse dermal fibroblasts; test: Dermal fibroblast proliferation in vitro, BrdU labeling assay; assay type: cell-based, C57BL/6 mouse; settings: 24 hours; for BrdU/Vimentin Labeling Index (%): 50 nM peptide in 1% FBS medium, BrdU 2 hours
Description: Full-thickness skin tissue was obtained from the dorsum of C57BL/6 mouse. The subcutaneous tissue was carefully dissected from the skin and washed three times in sterile phosphate-buffered saline (PBS). The tissue was then cut into small pieces (1-2 mm^3). After being digested with 0.1% dispase at 4° C. overnight, the epidermal layers were removed, and the remaining dermal parts were further digested with 0.1% collagenase I at 37° C. for another 4 hours. The digested cells were then collected by centrifugation (400 g for 5 minutes) and resuspended in high-glucose DMEM supplemented with 10% FBS, 2 mM L-glutamine, and 1% penicillin-streptomycin antibiotic mixture. Cells were seeded onto tissue-culture plates (Falcon Labware; NJ, USA) at 1×10^3 cells/cm^2 and maintained at 37° C. with 5% CO2. After 24 hours, the medium was discarded to remove residual non-adherent cells, and cell culture was replenished with a fresh medium. For passage, near-confluent cells were harvested with 0.25% trypsin/EDTA.
After fixing with 4% paraformaldehyde, cells were exposed to cold methanol for 2 minutes, and then treated with 1 N HCl at room temperature for 1 hour before performing immunofluorescence staining.
BrdU-labeled DNA was detected by polyclonal anti-BrdU antibody and rhodamine-conjugated donkey anti-rabbit IgG. Nuclei were counterstained with Hoechst 33258 (blue).
Primary mouse dermal fibroblasts were isolated and cultured as described in the “Materials and Methods” section. The dermal fibroblast at passage 2 were seeded at gelatin-coated slide in a 6-well plate at a density of 2×10^5 cells per well and cultured in growth medium (DMEM 10% FBS) for 24 hours before being replaced by a basal growth medium with 1% FBS only (control group) or with 1% FBS plus an additional 50 nM of PEDF-derived peptide (i.e., 29-mer, 24-mer, 20-mer, 18-mer, Mo 29-mer, or Mo 20-mer) for 24 hours. For BrdU labeling assay, BrdU (final concentration, 10 μM) was added to the culture for 2 hours. The level of BrdU- and vimentin-double positive cells was expressed as the percentage of BrdU- and vimentin-double positive cells per total vimentin-positive cells (the BrdU/Vimentin Labeling Index), and the results were summarized in Table 2.

[2] = tested on: type I collagen (COL1A1); test: COL1A1 level in UVB-damaged mouse skin by immunoblot; assay type: in vivo, nude mice; settings: 8-week UVB, then ointment plus microneedle for 2 weeks; untreated normal group set to 100%
Description: Skin tissues were homogenized in ice-cold lysis buffer containing 20 mM HEPES (pH 7.4), 150 mM NaCl, 1% SDS, 1 mM ethylenediamine tetraacetic acid (EDTA), 5 mM phenylmethanesulfonyl fluoride (PMSF), and 1 mM dithiothreitol (DTT), 1% Triton X-100, with freshly added protease inhibitor cocktail (Roche, Indianapolis, Ind.). Homogenates were then centrifuged at 12,000 g for 30 minutes at 4° C., and supernatants were then collected and stored at −70° C. Protein contents in lysates were determined using the Bradford assay. Whole cell lysates were prepared using the above lysis buffer. Aliquots of the lysates were then resolved on a SDS-PAGE and then electrotransferred to polyvinylidene difluoride (PVDF) membranes (Millipore, Bedford, Mass., USA) and processed for immunoblot analysis.
Antibodies used in the immunoblot study included anti-type I collagen 1A1 antibody (1:1000 dilution), anti-MMP-1 antibody (1:500 dilution) and anti-β-actin antibody (1:10000 dilution). Proteins of interest were detected using the appropriate IgG-HRP secondary antibody and ECL reagent (Amersham, Arlington Heights, Ill., USA). X-ray films were scanned on a Model GS-700 Imaging Densitometer (Bio-Rad Laboratories, Hercules, Calif.) and analyzed using Labworks 4.0 software. For quantification, blots from at least three independent experiments were used.
Six-week-old female nude mice (BALB/cAnN.Cg-Foxn1nu/CrlNarl) were irradiated with ultraviolet B (UVB) on the back 5 times a week for an eight-week period using a bank of five UVB lamps (model XL-1000B, Spectrolinker™ apparatus; emission peak: 312 nm), placed about 20 cm above the backs of the animals. During the UVB exposure, the mice were allowed to move freely within the cage. […] The level of BrdU- and vimentin-double positive cells was expressed as the percentage of BrdU- and vimentin-double positive cells per total vimentin-positive cells (the BrdU/Vimentin Labeling Index). […]

Substance | BrdU/Vimentin Labeling Index (%) [1] | proliferation relative to control medium ([1]; 50 nM peptide) | COL1A1 Level (%) [2] | effect on dermal fibroblast proliferation in vitro ([1]; 50 nM peptide)
Ac-SLGAEQRTESIIHRALYYDLISSPDIHGT-NH2 [29-mer] | 9.6 ± 1.6 % | about 5 fold | 91.0 ± 5.0 % | –
EQRTESIIHRALYYDLIS [18-mer] | 2.1 ± 0.61% | – | 45.0 ± 3.8% | failed to elicit such effect
SLGAEQRTESIIHRALYYDL [20-mer, synthetic peptide corresponding to residues 93-112 of human PEDF] | 10.4 ± 2.3 % | about 5 fold | 92.3 ± 9.1 % | –
